Laboratory results taken from US11878970B2, “Allosteric chromenone inhibitors of phosphoinositide 3-kinase (PI3K) for the treatment of disease” (Petra Pharma Corporation, priority 2021, dated 2024).

Columns and labels:
[1] = biological target: T1, PI3K-α (PIK3CA) wild-type (WT), p110α/p85α complex (Homo sapiens, UniProt P42336); test: PI3K-alpha kinase (PIK3CA) biochemical activity, ADP-Glo, wild-type; conditions: Soy PI lipid substrate
T1 construct: Recombinant, catalytically active human full length PIK3KA Wild-type and H1047R mutant; 6×His (N); purchased EMD Millipore Sigma 14-602M
Summary of the method: (§1)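 ADP formation measured by ADP-Glo luminescence after reaction at 27 °C to about 10% ATP turnover, using 20 uM ATP, 50 uM PIP2diC8 or soy PI lipid, HEPES pH 7.4 with MgCl2. Enzyme (1-5 nM WT or H1047R p110α/p85α) and compound preincubated 1 h first; 10-point 1:3 curves fitted four-parameter for IC50.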

[2] = biological target: T2, PI3K-α (PIK3CA) H1047R mutant, p110α/p85α complex (Homo sapiens, UniProt P42336, H1047R); test: PI3K-alpha kinase (PIK3CA) biochemical activity, ADP-Glo, H1047R mutant; conditions: Soy PI lipid substrate
T2 construct: Recombinant, catalytically active human full length PIK3KA Wild-type and H1047R mutant; 6×His (N); purchased EMD Millipore Sigma 14-792M
Summary of the method: as §1

[3] = biological target: PI3K-α (PIK3CA) in MDA-MB-453 cells (Homo sapiens, UniProt P42336); test: PI3K-alpha kinase (PIK3CA) in vitro cell based assay, MDA-MB-453 cells, SureFire Ultra AlphaLisa; conditions: read-out: PI3K-α (PIK3CA) in vitro cell based assay IC50
Summary of the method: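 Cells treated 3 h in serum-free MEM with 1 μg/mL insulin, 10-point 1:3 series in 0.3% DMSO, then lysed for SureFire Ultra AlphaLisa read-out. Inhibition normalized to DMSO (max) and 1 μM GDC-0032 (min); duplicate averages fitted by 4-parameter logistic for relative IC50.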

Chain of PI3K-α (PIK3CA) in MDA-MB-453 cells (P27986 2-724): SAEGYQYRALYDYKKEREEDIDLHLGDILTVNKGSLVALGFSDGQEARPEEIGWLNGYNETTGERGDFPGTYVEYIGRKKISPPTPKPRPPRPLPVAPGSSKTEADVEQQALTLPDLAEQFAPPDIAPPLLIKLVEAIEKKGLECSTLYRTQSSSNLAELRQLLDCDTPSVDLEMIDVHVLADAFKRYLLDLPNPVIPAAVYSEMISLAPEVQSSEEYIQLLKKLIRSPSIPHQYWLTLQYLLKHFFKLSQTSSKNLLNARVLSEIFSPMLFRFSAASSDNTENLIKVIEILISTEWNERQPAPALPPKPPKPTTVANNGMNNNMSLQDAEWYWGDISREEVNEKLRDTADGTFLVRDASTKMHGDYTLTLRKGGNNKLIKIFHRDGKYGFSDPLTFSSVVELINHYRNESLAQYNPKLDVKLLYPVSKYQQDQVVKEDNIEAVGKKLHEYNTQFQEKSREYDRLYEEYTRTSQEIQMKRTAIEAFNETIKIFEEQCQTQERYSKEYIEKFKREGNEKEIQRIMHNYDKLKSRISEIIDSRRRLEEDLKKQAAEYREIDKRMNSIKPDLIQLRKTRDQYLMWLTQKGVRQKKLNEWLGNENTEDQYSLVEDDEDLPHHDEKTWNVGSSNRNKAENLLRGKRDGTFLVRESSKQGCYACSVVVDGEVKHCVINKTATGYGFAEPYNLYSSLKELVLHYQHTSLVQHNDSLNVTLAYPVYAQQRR
Chain of PI3K-α (PIK3CA) in MDA-MB-453 cells (P42336 whole entry): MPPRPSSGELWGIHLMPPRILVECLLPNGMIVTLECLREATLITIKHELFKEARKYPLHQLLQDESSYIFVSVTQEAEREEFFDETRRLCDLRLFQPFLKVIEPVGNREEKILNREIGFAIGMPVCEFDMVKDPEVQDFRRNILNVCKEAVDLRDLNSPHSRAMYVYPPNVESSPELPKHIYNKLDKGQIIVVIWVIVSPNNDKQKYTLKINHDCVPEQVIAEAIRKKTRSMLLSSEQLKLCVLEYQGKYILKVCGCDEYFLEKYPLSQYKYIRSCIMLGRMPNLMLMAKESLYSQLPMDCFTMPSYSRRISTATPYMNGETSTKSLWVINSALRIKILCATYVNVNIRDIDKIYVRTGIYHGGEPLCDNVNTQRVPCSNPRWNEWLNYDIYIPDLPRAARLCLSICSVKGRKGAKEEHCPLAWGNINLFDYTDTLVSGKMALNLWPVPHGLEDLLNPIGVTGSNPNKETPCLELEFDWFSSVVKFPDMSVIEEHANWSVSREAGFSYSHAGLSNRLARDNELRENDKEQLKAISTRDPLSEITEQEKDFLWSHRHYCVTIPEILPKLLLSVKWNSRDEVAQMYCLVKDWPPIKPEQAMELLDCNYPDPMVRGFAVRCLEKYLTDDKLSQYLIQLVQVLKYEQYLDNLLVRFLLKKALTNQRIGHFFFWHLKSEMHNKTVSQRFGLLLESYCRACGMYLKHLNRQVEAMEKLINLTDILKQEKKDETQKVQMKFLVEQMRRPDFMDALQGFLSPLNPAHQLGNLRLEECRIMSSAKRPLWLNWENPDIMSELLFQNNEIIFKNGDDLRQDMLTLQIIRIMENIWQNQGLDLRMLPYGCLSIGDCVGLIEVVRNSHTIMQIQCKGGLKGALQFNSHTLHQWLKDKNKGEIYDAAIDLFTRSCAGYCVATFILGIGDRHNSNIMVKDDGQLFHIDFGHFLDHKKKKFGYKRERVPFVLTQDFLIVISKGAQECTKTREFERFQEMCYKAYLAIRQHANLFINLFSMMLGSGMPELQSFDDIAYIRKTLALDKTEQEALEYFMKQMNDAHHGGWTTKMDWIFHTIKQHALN
T2 sequence (P42336 whole entry H1047R): as the sequence (P42336 whole entry) above, with H1047R counted along it
T2 sequence (P27986 whole entry partner): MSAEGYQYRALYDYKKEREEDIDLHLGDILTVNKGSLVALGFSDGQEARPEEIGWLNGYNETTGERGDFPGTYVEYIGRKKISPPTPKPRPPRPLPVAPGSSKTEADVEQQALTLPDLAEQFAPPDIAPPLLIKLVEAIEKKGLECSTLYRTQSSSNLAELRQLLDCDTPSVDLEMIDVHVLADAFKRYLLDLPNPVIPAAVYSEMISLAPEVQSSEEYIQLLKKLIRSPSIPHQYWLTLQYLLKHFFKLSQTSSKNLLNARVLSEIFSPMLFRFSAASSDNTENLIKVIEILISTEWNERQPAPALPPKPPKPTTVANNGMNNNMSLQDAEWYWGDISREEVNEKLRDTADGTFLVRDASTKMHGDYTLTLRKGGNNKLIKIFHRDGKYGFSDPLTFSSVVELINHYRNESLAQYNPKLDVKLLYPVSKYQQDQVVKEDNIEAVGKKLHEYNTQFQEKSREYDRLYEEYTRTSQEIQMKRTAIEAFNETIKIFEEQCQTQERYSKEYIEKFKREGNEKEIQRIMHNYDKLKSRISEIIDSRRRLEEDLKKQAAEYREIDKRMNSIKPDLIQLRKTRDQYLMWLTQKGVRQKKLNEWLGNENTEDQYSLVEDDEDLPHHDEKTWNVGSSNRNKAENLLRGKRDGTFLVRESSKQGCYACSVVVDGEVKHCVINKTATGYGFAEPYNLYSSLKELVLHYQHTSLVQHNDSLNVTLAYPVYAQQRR

| Compound | IC50 [1] | IC50 [2] | IC50 [3] |
| --- | --- | --- | --- |
| Cc1cc([C@@H](C)Nc2ccc(C(F)(F)F)cc2C(=O)O)c2oc(-c3ccc4nn(C)cc4c3)c(C)c(=O)c2c1 [Example 235, 2-[[(1R)-1-[3,6-Dimethyl-2-(2-methylindazol-5-yl)-4-oxo-chromen-8-yl]ethyl]amino]-5-(trifluoromethyl)benzoic acid] | 1000 to 5000 nM | < 500 nM | 50 to 100 nM |
| Cc1cc([C@@H](C)Nc2ccc(C(F)(F)F)nc2C(=O)O)c2oc(-c3ccc4nn(C)cc4c3)c(C)c(=O)c2c1 [Example 236, 3-[[(1R)-1-[3,6-Dimethyl-2-(2-methylindazol-5-yl)-4-oxo-chromen-8-yl]ethyl]amino]-6-(trifluoromethyl)pyridine-2-carboxylic acid] | 500 to 1000 nM | < 500 nM | < 50 nM |
| Cc1cc([C@@H](C)Nc2ccc(Cl)cc2C(=O)O)c2oc(-c3ccc4cnn(C)c4c3)cc(=O)c2c1 [Example 237, 5-Chloro-2-[[(1R)-1-[6-methyl-2-(1-methylindazol-6-yl)-4-oxo-chromen-8-yl]ethyl]amino]benzoic acid] | 500 to 1000 nM | < 500 nM | 50 to 100 nM |
| Cc1cc([C@@H](C)Nc2ccc(F)cc2C(=O)O)c2oc(-c3ccc4cnn(C)c4c3)cc(=O)c2c1 [Example 238, 5-Fluoro-2-[[(1R)-1-[6-methyl-2-(1-methylindazol-6-yl)-4-oxo-chromen-8-yl]ethyl]amino]benzoic acid] | < 500 nM | < 500 nM | < 50 nM |
| Cc1cc([C@@H](C)Nc2cccnc2C(=O)O)c2oc(-c3ccc4nc(C)sc4n3)cc(=O)c2c1 [Example 239, 3-[[(1R)-1-[6-Methyl-2-(2-methylthiazolo[5,4-b]pyridin-5-yl)-4-oxo-chromen-8-yl]ethyl]amino]pyridine-2-carboxylic acid] | > 10000 nM | 1000 to 5000 nM | 100 to 500 nM |
| Cc1cc([C@@H](C)Nc2cccnc2C(=O)O)c2oc(-c3ccc4nn(C)cc4c3)c(C)c(=O)c2c1 [Example 240, 3-[[(1R)-1-[3,6-Dimethyl-2-(2-methylindazol-5-yl)-4-oxo-chromen-8-yl]ethyl]amino]pyridine-2-carboxylic acid] | 1000 to 5000 nM | 500 to 1000 nM | 50 to 100 nM |
| Cc1cc([C@@H](C)Nc2cccc(F)c2C(=O)O)c2oc(-c3ccc4cc[nH]c4n3)cc(=O)c2c1 [Example 241, 2-Fluoro-6-[[(1R)-1-[6-methyl-4-oxo-2-(1H-pyrrolo[2,3-b]pyridin-6-yl)chromen-8-yl]ethyl]amino]benzoic acid] | 500 to 1000 nM | < 500 nM | 50 to 100 nM |
| Cc1cc([C@@H](C)Nc2ccc(Cl)nc2C(=O)O)c2oc(-c3ccc4nc(C)sc4n3)c(C)c(=O)c2c1 [Example 242, 6-Chloro-3-[[(1R)-1-[3,6-dimethyl-2-(2-methylthiazolo[5,4-b]pyridin-5-yl)-4-oxo-chromen-8-yl]ethyl]amino]pyridine-2-carboxylic acid] | 500 to 1000 nM | < 500 nM | < 50 nM |
| Cc1cc([C@@H](C)Nc2cccnc2C(=O)O)c2oc(-c3ccc4nc(C)sc4n3)c(C)c(=O)c2c1 [Example 243, 3-[[(1R)-1-[3,6-Dimethyl-2-(2-methylthiazolo[5,4-b]pyridin-5-yl)-4-oxo-chromen-8-yl]ethyl]amino]pyridine-2-carboxylic acid] | 1000 to 5000 nM | 1000 to 5000 nM | 100 to 500 nM |
| Cc1cc([C@@H](C)Nc2ccc(Br)nc2C(=O)O)c2oc(-c3ccc4nn(C)cc4c3)c(C)c(=O)c2c1 [Example 244, 6-Bromo-3-[[(1R)-1-[3,6-dimethyl-2-(2-methylindazol-5-yl)-4-oxo-chromen-8-yl]ethyl]amino]pyridine-2-carboxylic acid] | < 500 nM | < 500 nM | < 50 nM |
| Cc1cc([C@@H](C)Nc2ccc(Br)nc2C(=O)O)c2oc(-c3ccc4nc(C)sc4n3)c(C)c(=O)c2c1 [Example 245, 6-Bromo-3-[[(1R)-1-[3,6-dimethyl-2-(2-methylthiazolo[5,4-b]pyridin-5-yl)-4-oxo-chromen-8-yl]ethyl]amino]pyridine-2-carboxylic acid] | < 500 nM | < 500 nM | < 50 nM |
| Cc1cc([C@@H](C)Nc2ccc(Cl)nc2C(=O)O)c2oc(-c3ccc4nc(C)sc4c3)c(C)c(=O)c2c1 [Example 246, 6-Chloro-3-[[(1R)-1-[3,6-dimethyl-2-(2-methyl-l,3-benzothiazol-6-yl)-4-oxo-chromen-8-yl]ethyl]amino]pyridine-2-carboxylic acid] | 500 to 1000 nM | < 500 nM | < 50 nM |
| Cc1cc([C@@H](C)Nc2ccc(Cl)nc2C(=O)O)c2oc(-c3cc4cccnc4[nH]3)c(C)c(=O)c2c1 [Example 247, 6-Chloro-3-[[(1R)-1-[3,6-dimethyl-4-oxo-2-(1H-pyrrolo[2,3-b]pyridin-2-yl)chromen-8-yl]ethyl]amino]pyridine-2-carboxylic acid] | < 500 nM | < 500 nM | < 50 nM |
| COc1ccc2cc(-c3cc(=O)c4cc(C)cc([C@@H](C)Nc5ccccc5C(=O)O)c4o3)cc(C)c2n1 [Example 248, 2-[[(1R)-1-[2-(2-Methoxy-8-methyl-6-quinolyl)-6-methyl-4-oxo-chromen-8-yl]ethyl]amino]benzoic acid] | 1000 to 5000 nM | 500 to 1000 nM | 100 to 500 nM |
| COc1ccc2cc(-c3cc(=O)c4cc(C)cc([C@@H](C)Nc5ccccc5C(=O)O)c4o3)ccc2n1 [Example 249, 2-[[(1R)-1-[2-(2-Methoxy-6-quinolyl)-6-methyl-4-oxo-chromen-8-yl]ethyl]amino]benzoic acid] | 1000 to 5000 nM | < 500 nM | 50 to 100 nM |
| Cc1cc([C@@H](C)Nc2ccc(C)nc2C(=O)O)c2oc(-c3ccc4nc(C)sc4n3)cc(=O)c2c1 [Example 250, 6-Methyl-3-[[(1R)-1-[6-methyl-2-(2-methylthiazolo[5,4-b]pyridin-5-yl)-4-oxo-chromen-8-yl]ethyl]amino]pyridine-2-carboxylic acid] | 5000 to 10000 nM | 1000 to 5000 nM | 100 to 500 nM |
| Cc1cc([C@@H](C)Nc2ccc(Cl)nc2C(=O)O)c2oc(-c3ccc4nc(C)sc4n3)cc(=O)c2c1 [Example 251, 6-Chloro-3-[[(1R)-1-[6-methyl-2-(2-methylthiazolo[5,4-b]pyridin-5-yl)-4-oxo-chromen-8-yl]ethyl]amino]pyridine-2-carboxylic acid] | 1000 to 5000 nM | < 500 nM | 50 to 100 nM |
| Cc1cc([C@@H](C)Nc2ccc(F)cc2C(=O)O)c2oc(-c3ccc4nn(C)cc4c3)c(C)c(=O)c2c1 [Example 253, 2-[[(1R)-1-[3,6-Dimethyl-2-(2-methylindazol-5-yl)-4-oxo-chromen-8-yl]ethyl]amino]-5-fluoro-benzoic acid] | < 500 nM | < 500 nM | < 50 nM |
| Cc1cc([C@@H](C)Nc2ccc(F)cc2C(=O)O)c2oc(-c3ccc4nc(C)sc4n3)c(C)c(=O)c2c1 [Example 254, 2-[[(1R)-1-[3,6-Dimethyl-2-(2-methylthiazolo[5,4-b]pyridin-5-yl)-4-oxo-chromen-8-yl]ethyl]amino]-5-fluoro-benzoic acid] | 500 to 1000 nM | < 500 nM | < 50 nM |
